Our source for the IC50 values is patent US11485736B2 (KSQ Therapeutics, Inc., priority 2018, dated 2022).

Chain of USP1/UAF1 (O94782 whole entry): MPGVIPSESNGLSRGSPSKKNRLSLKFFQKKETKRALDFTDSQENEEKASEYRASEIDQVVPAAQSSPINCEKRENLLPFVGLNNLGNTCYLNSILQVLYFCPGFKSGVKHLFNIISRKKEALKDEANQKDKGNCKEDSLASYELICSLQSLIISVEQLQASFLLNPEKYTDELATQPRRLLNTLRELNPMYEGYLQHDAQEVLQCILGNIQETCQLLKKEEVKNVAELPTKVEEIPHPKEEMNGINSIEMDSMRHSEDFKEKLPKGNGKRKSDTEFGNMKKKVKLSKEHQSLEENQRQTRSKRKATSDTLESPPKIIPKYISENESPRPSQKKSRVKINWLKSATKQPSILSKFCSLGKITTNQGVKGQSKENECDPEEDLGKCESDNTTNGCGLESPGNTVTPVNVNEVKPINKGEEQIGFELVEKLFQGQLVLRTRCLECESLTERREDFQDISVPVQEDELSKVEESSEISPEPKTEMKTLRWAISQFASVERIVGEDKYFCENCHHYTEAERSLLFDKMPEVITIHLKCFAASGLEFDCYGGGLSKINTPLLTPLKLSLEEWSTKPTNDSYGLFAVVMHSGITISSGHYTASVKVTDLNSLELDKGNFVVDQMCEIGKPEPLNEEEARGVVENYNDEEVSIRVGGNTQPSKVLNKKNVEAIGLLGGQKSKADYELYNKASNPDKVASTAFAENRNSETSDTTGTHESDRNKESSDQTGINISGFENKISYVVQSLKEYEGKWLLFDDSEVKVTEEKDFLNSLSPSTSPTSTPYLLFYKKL
Chain of USP1/UAF1 (Q8TAF3 whole entry partner): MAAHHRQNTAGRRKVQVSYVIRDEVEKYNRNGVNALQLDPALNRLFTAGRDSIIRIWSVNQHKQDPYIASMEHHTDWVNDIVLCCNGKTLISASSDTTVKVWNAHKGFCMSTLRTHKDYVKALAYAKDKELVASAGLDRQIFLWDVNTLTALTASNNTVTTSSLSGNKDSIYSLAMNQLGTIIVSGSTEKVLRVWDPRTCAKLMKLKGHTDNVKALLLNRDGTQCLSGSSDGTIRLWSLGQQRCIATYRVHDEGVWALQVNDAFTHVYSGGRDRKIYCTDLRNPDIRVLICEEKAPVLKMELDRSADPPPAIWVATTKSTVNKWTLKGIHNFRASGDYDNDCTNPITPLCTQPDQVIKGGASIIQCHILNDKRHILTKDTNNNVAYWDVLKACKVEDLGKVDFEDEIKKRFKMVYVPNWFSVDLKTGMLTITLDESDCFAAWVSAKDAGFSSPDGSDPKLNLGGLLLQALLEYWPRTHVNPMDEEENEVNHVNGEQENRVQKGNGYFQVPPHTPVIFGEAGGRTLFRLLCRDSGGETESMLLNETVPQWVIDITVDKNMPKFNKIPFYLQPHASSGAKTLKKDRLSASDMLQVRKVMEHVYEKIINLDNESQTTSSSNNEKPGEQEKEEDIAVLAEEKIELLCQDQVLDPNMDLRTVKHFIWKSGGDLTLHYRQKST

One assay addresses USP1/UAF1 (Homo sapiens (Human), UniProt O94782). In words: Deubiquitination assay for USP1/UAF1 activity (ubiquitin-rhodamine 110). Format: biochemical. As to conditions: Table 2; 0.05 nM USP1/UAF1, 150 nM ubiquitin-rhodamine. How it is done: Certain Compounds of the Disclosure were assessed for USP1/UAF1 activity in a Ubiquitin Rhodamine assay modified from those described previously.
Deubiquitinase activity was measured using ubiquitin-rhodamine 110 as a substrate. Cleavage of the amide bond between rhodamine and the c-terminal glycine of ubiquitin yields an increase in fluorescence signal. The assay was conducted in 20 ul total volume of assay buffer (50 mM Tris-HCl, pH 7.8, 0.5 mM EDTA, 0.01% Bovine Serum Albumin, 1 mM DTT, 0.01% Tween-20), and 0.05 nM USP1/UAF1 enzyme.
Compounds, dissolved in DMSO were tested in dose response format, beginning at 10 uM.
Compounds depicted below were added to enzyme/assay buffer mix and incubated 10 min.
Data for all assay formats was calculated as percent inhibition compared with control wells. […] IC50 values were calculated using the standard four parameter curve fitting algorithm in either Prism GraphPad (La Jolla, Calif.) software, or Collaborative Drug Discovery (Burlingame, Calif.) CDD Vault.
As for `COc1cccc(C2CC2)c1-c1ncc2cnn(Cc3ccc(-c4nc(C(F)(F)F)cn4C)cc3)c2n1` [drawing 724], the IC50 is under 10 nM.
`COc1ccccc1-c1ncc2cnn(Cc3ccc(-c4nc(C(F)(F)F)cn4C)cc3)c2n1` [drawing 715] registered an IC50 of 10 to 100 nM.
The same measure, in the same setting: to `Cc1cccc(S(C)(=O)=O)c1-c1ncc2cnn(Cc3ccc(-c4nc(C(F)(F)F)cn4C)cc3)c2n1` belongs 100 to 200 nM.
`COc1nccc(C#N)c1-c1ncc2cnn(Cc3ccc(-c4nc(C(F)(F)F)cn4C)cc3)c2n1` had an IC50 of 10 to 100 nM.
The same measure, in the same setting: to `CC(C)c1ncccc1-c1ncc2cnn(Cc3ccc(-c4nc(C(F)(F)F)cn4C)cc3)c2n1` [drawing 721] belongs 10 to 100 nM; to `CC(C)c1c(F)cccc1-c1ncc2cnn(Cc3ccc(-c4nc(C(F)(F)F)cn4C)cc3)c2n1` [drawing 728], under 10 nM; to `CC(C)c1ccccc1-c1ncc2cnn(Cc3ccc(-c4nc(C(F)(F)F)cn4C)cc3)c2n1` [drawing 730], under 10 nM.
Still for that read-out and setting: to `COc1ncnc(C)c1-c1ncc2cnn(Cc3ccc(-c4nc(C(F)(F)F)cn4C)cc3)c2n1` [drawing 712] belongs 10 to 100 nM; to `Cc1nn(Cc2ccc(-c3nc(C(F)(F)F)cn3C)cc2)c2nc(-c3ccccc3C(C)C)ncc12` [drawing 729], under 10 nM; to `CC(C)c1ccccc1-c1ncc2ncn(Cc3ccc(-c4nc(C(F)(F)F)cn4C)cc3)c2n1` [drawing 719], 10 to 100 nM.

The assay is the same for the next values; noted with them: Table 3; 0.05 nM USP1/UAF1, 150 nM ubiquitin-rhodamine.
In the case of `CCOc1ncnc(C2CC2)c1-c1ncc2cnn(Cc3ccc(-c4nc(C(F)(F)F)cn4C)cc3)c2n1` [drawing 763], the IC50 lay in the range of 10 to 100 nM.
As for `COCCOc1ncnc(C2CC2)c1-c1ncc2cnn(Cc3ccc(-n4nc(C(F)(F)F)cc4C)cc3)c2n1` [drawing 781], the IC50 fell in the range of 100 to 200 nM.
The same measure, in the same setting: to `CCn1cc(C(F)(F)F)nc1-c1ccc(Cn2ncc3cnc(-c4c(C5CC5)cnn4CC)nc32)cc1` [drawing 771] belongs 10 to 100 nM.
Take `COc1ncnc(C2CCC2)c1-c1ncc2cnn(Cc3ccc(-c4nc(C(F)(F)F)cn4C)cc3)c2n1` [drawing 749]: the IC50 is 10 to 100 nM.
Same read-out and setting: to `COc1ncnc(C2CC2)c1-c1ncc2cnn(Cc3ccc(-n4nc(C#N)cc4C)cc3)c2n1` belongs 10 to 100 nM.
`COc1nc(C)nc(C2CC2)c1-c1ncc2cnn(Cc3ccc(-c4nc(C(F)(F)F)cn4C)cc3)c2n1` [drawing 760] registered an IC50 of 10 to 100 nM.
On the same count and under the same terms, to `CCn1cc(C(F)(F)F)nc1-c1ccc([C@@H](C)n2ncc3cnc(-c4c(OC)ncnc4C4CCC4)nc32)cc1` (single isomer, unassigned) [drawing 742] belongs 10 to 100 nM; to `COc1ncnc(C2CC2)c1-c1ncc2cnn(Cc3ccc(-c4nc(C(F)(F)F)cn4C)cc3F)c2n1` [drawing 758], 10 to 100 nM.
On the same count and under the same terms, to `Cc1cc(C(F)(F)F)nn1-c1ccc(Cn2ncc3cnc(-c4cccnc4C#N)nc32)cc1` [drawing 797] belongs over 200 nM; to `Cn1cc(C(F)(F)F)nc1-c1ccc(Cn2ncc3cnc(-c4c(C5CC5)ncnc4N4CCC4)nc32)cc1`, over 200 nM; to `COc1ncnc(C2CC2)c1-c1ncc2cnn([C@@H](C)c3ccc(-c4nc(C(F)(F)F)cn4C)cc3)c2n1` (single isomer, unassigned) [drawing 743], 10 to 100 nM.
As for `CNc1ncnc(C2CC2)c1-c1ncc2cnn(Cc3ccc(-c4nc(C(F)(F)F)cn4C)cc3)c2n1`, the concentration for half-maximal inhibition (IC50) lay in the range of 10 to 100 nM.
On the same count and under the same terms, to `CC(C)Oc1ncnc(C2CC2)c1-c1ncc2cnn(Cc3ccc(-c4nc(C(F)(F)F)cn4C)cc3)c2n1` [drawing 756] belongs 10 to 100 nM; to `Cc1ncnc(N(C)C)c1-c1ncc2cnn(Cc3ccc(-n4nc(C(F)(F)F)cc4C)cc3)c2n1`, over 200 nM; to `COCCOc1ncnc(C)c1-c1ncc2cnn(Cc3ccc(-n4nc(C(F)(F)F)cc4C)cc3)c2n1` [drawing 789], over 200 nM.
Molecule `COc1ncnc(C(C)(C)C)c1-c1ncc2cnn(Cc3ccc(-c4nc(C(F)(F)F)cn4C)cc3)c2n1` [drawing 757] returned an IC50 of 10 to 100 nM.
Molecule `COc1ncnc(C)c1-c1ncc2cnn(Cc3ccc(-n4nc(C(F)(F)F)cc4C)cc3)c2n1` [drawing 784] registered an IC50 of 100 to 200 nM.
On the same count and under the same terms, to `COc1ncnc(C2CC2)c1-c1ncc2cnn([C@H](C)c3ccc(-c4nc(C(F)(F)F)cn4C)cc3)c2n1` (single isomer, unassigned) [drawing 759] belongs 10 to 100 nM.
Same read-out and setting: to `COc1ncnc(C)c1-c1ncc2cnn(Cc3ccc(-n4nc(C(F)(F)F)cc4OC)cc3)c2n1` belongs 100 to 200 nM; to `CCn1cc(C(F)(F)F)nc1-c1ccc(Cn2ncc3cnc(-c4c(OC(C)(C)C)ncnc4C4CC4)nc32)cc1` [drawing 740], 10 to 100 nM.
`CSc1ncnc(C)c1-c1ncc2cnn(Cc3ccc(-n4nc(C(F)(F)F)cc4C)cc3)c2n1` [drawing 779] showed an IC50 of 10 to 100 nM.
On the same count and under the same terms, to `COc1ncnc(C2CC2)c1-c1ncc2cnn(Cc3ccc(-c4cn(C)c(C(F)(F)F)n4)cc3)c2n1` [drawing 736] belongs 10 to 100 nM; to `Cn1cc(C(F)(F)F)nc1-c1ccc(Cn2ncc3cnc(-c4c(C#N)ncnc4C4CC4)nc32)cc1`, 10 to 100 nM; to `COc1ncnc(C2CC2)c1-c1ncc2cnn(Cc3ccc(-n4nc(C(F)F)cc4C)cc3)c2n1` [drawing 762], 10 to 100 nM.
On the same count and under the same terms, to `[2H]C([2H])([2H])n1cc(C(F)(F)F)nc1-c1ccc(Cn2ncc3cnc(-c4c(OC)ncnc4C4CC4)nc32)cc1` belongs 10 to 100 nM.
`COc1ncnc(C2CC2)c1-c1ncc2cnn(Cc3ccc(-c4nc(C(F)(F)F)cn4C4COC4)cc3)c2n1` [drawing 770] yielded an IC50 of 10 to 100 nM.
On to `COc1ncnc(C2CC2)c1-c1ncc2cnn(Cc3ccc(-c4nc(C(F)(F)F)c5n4CCNC5)cc3)c2n1` [drawing 773], for which the 50% inhibitory concentration (IC50) fell in the range of 10 to 100 nM.
The same measure, in the same setting: to `Cc1ncnc(C(C)C)c1-c1ncc2cnn(Cc3ccc(-n4nc(C(F)(F)F)cc4C)cc3)c2n1` [drawing 776] belongs 10 to 100 nM.
The molecule `COc1ncnc(C2CC2)c1-c1ncc2cnn(Cc3ccc(-c4nc(C(F)(F)F)n(C)n4)cc3)c2n1` [drawing 778] gave a 50% inhibitory concentration (IC50) of 10 to 100 nM.
Same read-out and setting: to `CCn1cc(C(F)(F)F)nc1-c1ccc(Cn2ncc3cnc(-c4c(OC)ncnc4C4CC4)nc32)cc1` [drawing 738] belongs 10 to 100 nM; to `CCn1cc(C(F)(F)F)nc1-c1ccc(Cn2ncc3cnc(-c4c(OC)ncnc4C4CC4)nc32)cn1` [drawing 767], 10 to 100 nM; to `CN(C)c1ncnc(C2CC2)c1-c1ncc2cnn(Cc3ccc(-c4nc(C(F)(F)F)cn4C)cc3)c2n1`, over 200 nM.
The same measure, in the same setting: to `CCn1cc(C(F)(F)F)nc1-c1ccc(Cn2ncc3cnc(-c4c(OC)cnn4C4CC4)nc32)cc1` [drawing 761] belongs 10 to 100 nM; to `CCn1cc(C(F)(F)F)nc1-c1ccc(Cn2ncc3cnc(-c4c(OC(F)F)ncnc4C4CC4)nc32)cc1` [drawing 731], under 10 nM; to `COc1ncnc(C2CC2)c1-c1ncc2cnn(Cc3ccc(-c4nc(OC)n(C)n4)cc3)c2n1`, over 200 nM.

Still in this assay, the particulars now being: Table 4; 0.05 nM USP1/UAF1, 150 nM ubiquitin-rhodamine.
In turn, `COc1ncnc(C2CC2)c1-c1ncc2ncn(Cc3ccc(-c4nc(C(F)(F)F)cn4C(C)C)cc3)c2n1` [drawing 818] showed an IC50 of 10 to 100 nM.
In turn, `COc1ncnc(C2CC2)c1-c1ncc2ccn(Cc3ccc(-c4nc(C(F)(F)F)cn4C)cc3)c2n1` [drawing 826] displayed an IC50 of 10 to 100 nM.
Same read-out and setting: to `COc1ncnc(C2CC2)c1-c1ncc2ccn(Cc3ccc(-c4nc(C(F)(F)F)cn4C(C)C)cc3)c2n1` belongs under 10 nM.
As for `CCn1cc(C(F)(F)F)nc1-c1ccc(Cn2nc(OC)c3cnc(-c4c(OC)ncnc4C4CC4)nc32)cc1` [drawing 819], the IC50 was in the range of 10 to 100 nM.
Molecule `CCn1cc(C(F)(F)F)nc1-c1ccc(Cn2nc(SCc3ccc(OC)cc3)c3cnc(-c4c(OC)ncnc4C4CC4)nc32)cc1` [drawing 801] showed an IC50 of 10 to 100 nM.
`COc1ncnc(C2CC2)c1-c1ncc2c(OC)nn([C@@H](C)c3ccc(-c4nc(C(F)(F)F)cn4C(C)C)cc3)c2n1` [drawing 814] showed an IC50 of 10 to 100 nM.
Same read-out and setting: to `CCn1cc(C(F)(F)F)nc1-c1ccc([C@H](C)n2nc(OC)c3cnc(-c4c(OC)ncnc4C4CC4)nc32)cc1` [drawing 813] belongs 10 to 100 nM; to `COc1ncnc(C2CC2)c1-c1ncc2c(OC)nn([C@@H](C)c3ccc(-c4nc(C(F)(F)F)cn4CCF)cc3)c2n1` [drawing 809], 10 to 100 nM; to `CC(C)c1ccccc1-c1ncc2ncn(Cc3ccc(-c4nc(C(F)(F)F)cn4C)cc3)c2n1` [drawing 832], 10 to 100 nM.
`COc1ncnc(C2CC2)c1-c1ncc2nc(C)n(Cc3ccc(-n4nc(C(F)(F)F)cc4C)cc3)c2n1` [drawing 827] displayed an IC50 of 10 to 100 nM.
Same read-out and setting: to `CCn1cc(C(F)(F)F)nc1-c1ccc(Cn2nc(SC)c3cnc(-c4c(OC)ncnc4C4CC4)nc32)cc1` [drawing 800] belongs 10 to 100 nM.
With `CCn1cc(C(F)(F)F)nc1-c1ccc(Cn2nc(N3CCC3)c3cnc(-c4c(OC)ncnc4C4CC4)nc32)cc1` [drawing 810], the IC50 lay in the range of 10 to 100 nM.
Turning to `COc1ncnc(C2CC2)c1-c1ncc2nc(C3CC3)n(Cc3ccc(-n4nc(C(F)(F)F)cc4C)cc3)c2n1` [drawing 822], the IC50 fell in the range of 10 to 100 nM.
Still for that read-out and setting: to `COc1ncnc(C2CC2)c1-c1ncc2nc(C(C)C)n(Cc3ccc(-c4nc(C(F)(F)F)cn4C(C)C)cc3)c2n1` [drawing 805] belongs 10 to 100 nM; to `COc1ncnc(C2CC2)c1-c1ncc2ncn(Cc3ccc(-n4nc(C(F)(F)F)cc4C)cc3)c2n1` [drawing 830], 100 to 200 nM.
As to `CCn1cc(C(F)(F)F)nc1-c1ccc(Cn2nc(OC3CCC3)c3cnc(-c4c(OC)ncnc4C4CC4)nc32)cc1` [drawing 806], the IC50 was 10 to 100 nM.
